{"source": "ChEMBL document CHEMBL5050843", "about": "“Amide substituted thiazoles as protein secretion inhibitors” (2019)", "assay_type_in_all_cases": "functional, cell-based", "key": {"[1]": {"test": "Inhibition of PD1ss-Gluc secretion in doxycyclin-induced human Flp-In-T-REx-293 cells measured by Gaussia luciferase reporter gene method"}, "[2]": {"test": "Inhibition of PR1ss-Gluc secretion in doxycyclin-induced human Flp-In-T-REx-293 cells measured by Gaussia luciferase reporter gene method"}, "[3]": {"test": "Inhibition of TNF-alpha-FL-Gluc secretion in doxycyclin-induced human Flp-In-T-REx-293 cells measured by Gaussia luciferase reporter gene method"}}, "note": "pIC50: −log10 of the molar value."}
{"smiles": "CC(C)(C)c1csc(NC(=O)Cc2cn(CC(=O)Nc3ccccc3O)c3ccc(Cl)cc23)n1", "values": [{"measurement": "pIC50", "setting": "[1]", "value": 4.98}, {"measurement": "pIC50", "setting": "[2]", "value": 4.72}, {"measurement": "pIC50", "setting": "[3]", "value": 4.75}]}
{"smiles": "CCC(C)(C)c1csc(NC(=O)Cc2cn(Cc3ccccc3Cl)c3ccc(Cl)cc23)n1", "values": [{"measurement": "pIC50", "setting": "[1]", "value": 6.14}, {"measurement": "pIC50", "setting": "[2]", "value": "< 4.60"}, {"measurement": "pIC50", "setting": "[3]", "value": "< 4.62"}]}
{"smiles": "CC(C)(C)c1csc(NC(=O)Cc2cn(Cc3ccccc3)c3nc(Cl)ccc23)n1", "values": [{"measurement": "pIC50", "setting": "[1]", "value": 5.00}, {"measurement": "pIC50", "setting": "[2]", "value": "< 4.60"}, {"measurement": "pIC50", "setting": "[3]", "value": "< 4.60"}]}
{"smiles": "CC(C)(C)c1csc(NC(=O)Cc2cn(Cc3ccc(F)cc3Cl)c3ccc(Cl)cc23)n1", "values": [{"measurement": "pIC50", "setting": "[1]", "value": 5.94}, {"measurement": "pIC50", "setting": "[2]", "value": "< 4.60"}, {"measurement": "pIC50", "setting": "[3]", "value": "< 4.60"}]}
{"smiles": "C[C@H](c1ccccc1Cl)n1cc(CC(=O)Nc2nc(C(C)(C)C)cs2)c2cc(Cl)ccc21", "values": [{"measurement": "pIC50", "setting": "[1]", "value": 5.38}, {"measurement": "pIC50", "setting": "[2]", "value": "< 4.60"}, {"measurement": "pIC50", "setting": "[3]", "value": "< 4.60"}]}
{"smiles": "CC(C)(C)c1csc(NC(=O)Cc2cn(C3CCCCC3)c3ccc(Cl)cc23)n1", "values": [{"measurement": "pIC50", "setting": "[1]", "value": 5.47}, {"measurement": "pIC50", "setting": "[2]", "value": "< 4.60"}, {"measurement": "pIC50", "setting": "[3]", "value": "< 4.60"}]}
{"smiles": "COC(C)(C)c1csc(NC(=O)Cc2cn(Cc3ccccc3Cl)c3ccc(Cl)cc23)n1", "values": [{"measurement": "pIC50", "setting": "[1]", "value": 5.98}, {"measurement": "pIC50", "setting": "[2]", "value": "< 4.60"}, {"measurement": "pIC50", "setting": "[3]", "value": 4.87}]}
{"smiles": "CC(C)(C)c1csc(NC(=O)Cc2cn(Cc3ncccn3)c3ccc(Cl)cc23)n1", "values": [{"measurement": "pIC50", "setting": "[1]", "value": 4.63}, {"measurement": "pIC50", "setting": "[2]", "value": "< 4.60"}, {"measurement": "pIC50", "setting": "[3]", "value": "< 4.60"}]}
{"smiles": "CC(C)(C)c1csc(NC(=O)Cc2cn(C3CCc4ccccc43)c3ccc(Cl)cc23)n1", "note": "(stereo not given)", "values": [{"measurement": "pIC50", "setting": "[1]", "value": 5.18}, {"measurement": "pIC50", "setting": "[2]", "value": "< 4.60"}, {"measurement": "pIC50", "setting": "[3]", "value": "< 4.60"}]}
{"smiles": "CC(c1ccccc1Cl)n1cc(CC(=O)Nc2nc(C(C)(C)C)cs2)c2cc(Cl)ccc21", "note": "(stereo not given)", "values": [{"measurement": "pIC50", "setting": "[1]", "value": 5.81}, {"measurement": "pIC50", "setting": "[2]", "value": "< 4.60"}, {"measurement": "pIC50", "setting": "[3]", "value": "< 4.60"}]}
{"smiles": "CC(C)(C)c1csc(NC(=O)Cc2cn(Cc3ncco3)c3ccc(Cl)cc23)n1", "values": [{"measurement": "pIC50", "setting": "[1]", "value": 4.63}, {"measurement": "pIC50", "setting": "[2]", "value": "< 4.60"}, {"measurement": "pIC50", "setting": "[3]", "value": "< 4.60"}]}
{"smiles": "Cc1c(CC(=O)Nc2nc(C(C)(C)C)cs2)c2ccccc2n1Cc1ccccc1Cl", "values": [{"measurement": "pIC50", "setting": "[1]", "value": 5.72}, {"measurement": "pIC50", "setting": "[2]", "value": "< 4.60"}, {"measurement": "pIC50", "setting": "[3]", "value": "< 4.67"}]}
{"smiles": "Cc1cnccc1Cn1cc(CC(=O)Nc2nc(C(C)(C)C)cs2)c2cc(Cl)ccc21", "values": [{"measurement": "pIC50", "setting": "[1]", "value": 5.57}, {"measurement": "pIC50", "setting": "[2]", "value": "< 4.60"}, {"measurement": "pIC50", "setting": "[3]", "value": 4.72}]}
{"smiles": "CC(C)(C)c1csc(NC(=O)Cc2cn(Cc3c(F)cccc3Cl)c3ccc(Cl)cc23)n1", "values": [{"measurement": "pIC50", "setting": "[1]", "value": 5.20}, {"measurement": "pIC50", "setting": "[2]", "value": "< 4.60"}, {"measurement": "pIC50", "setting": "[3]", "value": "< 4.60"}]}
{"smiles": "Cc1cc(Cn2cc(CC(=O)Nc3nc(C(C)(C)C)cs3)c3cc(Cl)ccc32)ccn1", "values": [{"measurement": "pIC50", "setting": "[1]", "value": 5.21}, {"measurement": "pIC50", "setting": "[2]", "value": 4.62}, {"measurement": "pIC50", "setting": "[3]", "value": "< 4.60"}]}
{"smiles": "CC(C(=O)Nc1nc(C(C)(C)C)cs1)c1cn(Cc2ccccc2)c2ccc(Cl)cc12", "note": "(stereo not given)", "values": [{"measurement": "pIC50", "setting": "[1]", "value": 5.22}, {"measurement": "pIC50", "setting": "[2]", "value": "< 4.60"}, {"measurement": "pIC50", "setting": "[3]", "value": "< 4.60"}]}
{"smiles": "CC(C)(C)Cc1csc(NC(=O)Cc2cn(Cc3ccccc3Cl)c3ccc(Cl)cc23)n1", "values": [{"measurement": "pIC50", "setting": "[1]", "value": 5.21}, {"measurement": "pIC50", "setting": "[2]", "value": "< 4.60"}, {"measurement": "pIC50", "setting": "[3]", "value": "< 4.60"}]}
{"smiles": "CC(C)(C)c1csc(NC(=O)Cc2cn(Cc3ccccc3)c3cc(Cl)ncc23)n1", "values": [{"measurement": "pIC50", "setting": "[1]", "value": 5.08}, {"measurement": "pIC50", "setting": "[2]", "value": 4.68}, {"measurement": "pIC50", "setting": "[3]", "value": 4.63}]}
{"smiles": "CC(C)(C)c1csc(NC(=O)Cc2cn(Cc3ccc(C(N)=O)cc3)c3ccc(Cl)cc23)n1", "values": [{"measurement": "pIC50", "setting": "[1]", "value": 5.05}, {"measurement": "pIC50", "setting": "[2]", "value": "< 4.60"}, {"measurement": "pIC50", "setting": "[3]", "value": "< 4.60"}]}
{"smiles": "CC(C)(C)c1csc(NC(=O)Cc2cn(Cc3nc4ccccc4o3)c3ccc(Cl)cc23)n1", "values": [{"measurement": "pIC50", "setting": "[1]", "value": 5.01}, {"measurement": "pIC50", "setting": "[2]", "value": "< 4.60"}, {"measurement": "pIC50", "setting": "[3]", "value": "< 4.60"}]}
{"smiles": "CC(C)OC(C)(C)c1csc(NC(=O)Cc2cn(Cc3ccccc3Cl)c3ccc(Cl)cc23)n1", "values": [{"measurement": "pIC50", "setting": "[1]", "value": 6.15}, {"measurement": "pIC50", "setting": "[2]", "value": "< 4.60"}, {"measurement": "pIC50", "setting": "[3]", "value": 4.83}]}
{"smiles": "C[C@@H](c1ccccc1Cl)n1cc(CC(=O)Nc2nc(C(C)(C)C)cs2)c2cc(Cl)ccc21", "values": [{"measurement": "pIC50", "setting": "[1]", "value": 6.06}, {"measurement": "pIC50", "setting": "[2]", "value": "< 4.60"}, {"measurement": "pIC50", "setting": "[3]", "value": "< 4.60"}]}
{"smiles": "CC(C)(C)c1csc(NC(=O)Cc2cn(Cc3ccc(C#N)cc3)c3ccc(Cl)cc23)n1", "values": [{"measurement": "pIC50", "setting": "[1]", "value": 5.38}, {"measurement": "pIC50", "setting": "[2]", "value": "< 4.60"}, {"measurement": "pIC50", "setting": "[3]", "value": 4.62}]}
{"smiles": "CC(C)(C)c1csc(NC(=O)Cc2cn(Cc3ccccc3)c3ncccc23)n1", "values": [{"measurement": "pIC50", "setting": "[1]", "value": 4.91}, {"measurement": "pIC50", "setting": "[2]", "value": "< 4.60"}, {"measurement": "pIC50", "setting": "[3]", "value": "< 4.60"}]}
{"smiles": "CC(C)(C)c1csc(NC(=O)Cc2cn(Cc3ccccc3)c3ccncc23)n1", "values": [{"measurement": "pIC50", "setting": "[1]", "value": 5.07}, {"measurement": "pIC50", "setting": "[2]", "value": "< 4.60"}, {"measurement": "pIC50", "setting": "[3]", "value": "< 4.60"}]}
